Source: the supplement of paper PMC10307832

Assays:
Experiment in all cases: relative viability (nuclei count vs DMSO), 5 days (fraction); higher = more cells survive
NCI-H1975 = tested on: NCI-H1975
Summary of the method: (§1)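 Relative viability was taken as the ratio of nuclei in treated wells to nuclei in vehicle wells. Lung cancer cell lines in 1536-well plates received compounds by pin tool one day after seeding, either one drug alone or a fixed anchor-drug dose plus five library-drug doses (not always all listed) in √10 steps. Nuclei were counted on 4× images after 5 days of treatment, and values are medians of duplicate plates.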

EPLC-272H = tested on: EPLC-272H
Summary of the method: as §1

NCI-H441 = tested on: NCI-H441
Summary of the method: as §1

NCI-H2342 = tested on: NCI-H2342
Summary of the method: as §1

NCI-H2228 = tested on: NCI-H2228
Summary of the method: as §1

COR-L 105 = tested on: COR-L 105
Summary of the method: as §1

NCI-H1355 = tested on: NCI-H1355
Summary of the method: as §1

NCI-H2085 = tested on: NCI-H2085
Summary of the method: as §1

H3255 = tested on: H3255
Summary of the method: as §1

HCC-366 = tested on: HCC-366
Summary of the method: as §1

NCI-H2087 = tested on: NCI-H2087
Summary of the method: as §1

NCI-H2009 = tested on: NCI-H2009
Summary of the method: as §1

NCI-H1792 = tested on: NCI-H1792
Summary of the method: as §1

ABC-1 = tested on: ABC-1
Summary of the method: as §1

EKVX = tested on: EKVX
Summary of the method: as §1

ChaGo-K-1 = tested on: ChaGo-K-1
Summary of the method: as §1

NCI-H322M = tested on: NCI-H322M
Summary of the method: as §1

NCI-H460 = tested on: NCI-H460
Summary of the method: as §1

HCC-827 = tested on: HCC-827
Summary of the method: as §1

CAL-12T = tested on: CAL-12T
Summary of the method: as §1

NCI-H1993 = tested on: NCI-H1993
Summary of the method: as §1

SK-MES-1 = tested on: SK-MES-1
Summary of the method: as §1

Work on `CCNC(=O)c1noc(-c2cc(C(C)C)c(O)cc2O)c1-c1ccc(CN2CCOCC2)cc1` [Luminespib] + O=C(c1cc(Cc2n[nH]c(=O)c3ccccc23)ccc1F)N1CCN(C(=O)C2CC2)CC1 [Olaparib] (partner 8 µM) yielded a relative viability (NCI-H1975; first compound 0.002 µM) of 0.875, a relative viability (NCI-H1975; first compound 0.006325 µM) of 0.802 and a relative viability (NCI-H1975; first compound 0.02 µM) of 0.919. It also gave a relative viability (NCI-H1975; first compound 0.06325 µM) of 0.128, a relative viability (NCI-H1975; first compound 0.2 µM) of 0.156 and a relative viability (EPLC-272H; first compound 0.002 µM) of 0.812. The relative viability (EPLC-272H; first compound 0.006325 µM) was 0.702, the relative viability (EPLC-272H; first compound 0.02 µM) was 0.709 and the relative viability (EPLC-272H; first compound 0.06325 µM) was 0.0637. For the same compound, the relative viability (EPLC-272H; first compound 0.2 µM) was 0.082, the relative viability (NCI-H441; first compound 0.002 µM) was 0.524 and the relative viability (NCI-H441; first compound 0.006325 µM) was 0.569. The relative viability (NCI-H441; first compound 0.02 µM) was 0.714, the relative viability (NCI-H441; first compound 0.06325 µM) was 0.119 and the relative viability (NCI-H441; first compound 0.2 µM) was 0.117. For the same compound, the relative viability (NCI-H2342; first compound 0.002 µM) was 0.411, the relative viability (NCI-H2342; first compound 0.006325 µM) was 0.512 and the relative viability (NCI-H2342; first compound 0.02 µM) was 0.324. For the same compound, the relative viability (NCI-H2342; first compound 0.06325 µM) was 0.348, the relative viability (NCI-H2342; first compound 0.2 µM) was 0.238 and the relative viability (NCI-H2228; first compound 0.002 µM) was 0.595. For the same compound, the relative viability (NCI-H2228; first compound 0.006325 µM) was 0.638, the relative viability (NCI-H2228; first compound 0.02 µM) was 0.326 and the relative viability (NCI-H2228; first compound 0.06325 µM) was 0.128. For the same compound, the relative viability (NCI-H2228; first compound 0.2 µM) was 0.142, the relative viability (COR-L 105; first compound 0.002 µM) was 0.737 and the relative viability (COR-L 105; first compound 0.006325 µM) was 0.647. The relative viability (COR-L 105; first compound 0.02 µM) was 0.646, the relative viability (COR-L 105; first compound 0.06325 µM) was 0.256 and the relative viability (COR-L 105; first compound 0.2 µM) was 0.295. The relative viability (NCI-H1355; first compound 0.002 µM) was 0.757, the relative viability (NCI-H1355; first compound 0.006325 µM) was 0.695 and the relative viability (NCI-H1355; first compound 0.02 µM) was 0.611. It also gave a relative viability (NCI-H1355; first compound 0.06325 µM) of 0.188, a relative viability (NCI-H1355; first compound 0.2 µM) of 0.149 and a relative viability (NCI-H2085; first compound 0.002 µM) of 0.78. It also gave a relative viability (NCI-H2085; first compound 0.006325 µM) of 0.742, a relative viability (NCI-H2085; first compound 0.02 µM) of 0.766 and a relative viability (NCI-H2085; first compound 0.06325 µM) of 0.425. The relative viability (NCI-H2085; first compound 0.2 µM) was 0.337, the relative viability (H3255; first compound 0.002 µM) was 0.59 and the relative viability (H3255; first compound 0.006325 µM) was 0.521. The relative viability (H3255; first compound 0.02 µM) was 0.563, the relative viability (H3255; first compound 0.06325 µM) was 0.337 and the relative viability (H3255; first compound 0.2 µM) was 0.253. For the same compound, the relative viability (HCC-366; first compound 0.002 µM) was 0.401, the relative viability (HCC-366; first compound 0.006325 µM) was 0.345 and the relative viability (HCC-366; first compound 0.02 µM) was 0.424. The relative viability (HCC-366; first compound 0.06325 µM) was 0.0205, the relative viability (HCC-366; first compound 0.2 µM) was 0.0254 and the relative viability (NCI-H2087; first compound 0.002 µM) was 0.639. It also gave a relative viability (NCI-H2087; first compound 0.006325 µM) of 0.518, a relative viability (NCI-H2087; first compound 0.02 µM) of 0.559 and a relative viability (NCI-H2087; first compound 0.06325 µM) of 0.116. It also gave a relative viability (NCI-H2087; first compound 0.2 µM) of 0.113, a relative viability (NCI-H2009; first compound 0.002 µM) of 0.763 and a relative viability (NCI-H2009; first compound 0.006325 µM) of 0.67. It also gave a relative viability (NCI-H2009; first compound 0.02 µM) of 0.701, a relative viability (NCI-H2009; first compound 0.06325 µM) of 0.409 and a relative viability (NCI-H2009; first compound 0.2 µM) of 0.0486. It also gave a relative viability (NCI-H1792; first compound 0.002 µM) of 0.4, a relative viability (NCI-H1792; first compound 0.006325 µM) of 0.298 and a relative viability (NCI-H1792; first compound 0.02 µM) of 0.271. For the same compound, the relative viability (NCI-H1792; first compound 0.06325 µM) was 0.0723, the relative viability (NCI-H1792; first compound 0.2 µM) was 0.0503 and the relative viability (ABC-1; first compound 0.002 µM) was 0.928. It also gave a relative viability (ABC-1; first compound 0.006325 µM) of 1.02, a relative viability (ABC-1; first compound 0.02 µM) of 0.526 and a relative viability (ABC-1; first compound 0.06325 µM) of 0.337. It also gave a relative viability (ABC-1; first compound 0.2 µM) of 0.244, a relative viability (EKVX; first compound 0.002 µM) of 0.881 and a relative viability (EKVX; first compound 0.006325 µM) of 0.881. For the same compound, the relative viability (EKVX; first compound 0.02 µM) was 0.651, the relative viability (EKVX; first compound 0.06325 µM) was 0.541 and the relative viability (EKVX; first compound 0.2 µM) was 0.155. For the same compound, the relative viability (ChaGo-K-1; first compound 0.002 µM) was 0.42, the relative viability (ChaGo-K-1; first compound 0.006325 µM) was 0.407 and the relative viability (ChaGo-K-1; first compound 0.02 µM) was 0.439. For the same compound, the relative viability (ChaGo-K-1; first compound 0.06325 µM) was 0.452, the relative viability (ChaGo-K-1; first compound 0.2 µM) was 0.36 and the relative viability (NCI-H322M; first compound 0.002 µM) was 0.799. For the same compound, the relative viability (NCI-H322M; first compound 0.006325 µM) was 0.738, the relative viability (NCI-H322M; first compound 0.02 µM) was 0.729 and the relative viability (NCI-H322M; first compound 0.06325 µM) was 0.344. The relative viability (NCI-H322M; first compound 0.2 µM) was 0.439, the relative viability (NCI-H460; first compound 0.002 µM) was 0.514 and the relative viability (NCI-H460; first compound 0.006325 µM) was 0.37. For the same compound, the relative viability (NCI-H460; first compound 0.02 µM) was 0.454, the relative viability (NCI-H460; first compound 0.06325 µM) was 0.0514 and the relative viability (NCI-H460; first compound 0.2 µM) was 0.0343. The relative viability (HCC-827; first compound 0.002 µM) was 0.595, the relative viability (HCC-827; first compound 0.006325 µM) was 0.64 and the relative viability (HCC-827; first compound 0.02 µM) was 0.537. The relative viability (HCC-827; first compound 0.06325 µM) was 0.143, the relative viability (HCC-827; first compound 0.2 µM) was 0.167 and the relative viability (CAL-12T; first compound 0.002 µM) was 0.671. For the same compound, the relative viability (CAL-12T; first compound 0.006325 µM) was 0.679, the relative viability (CAL-12T; first compound 0.02 µM) was 0.959 and the relative viability (CAL-12T; first compound 0.06325 µM) was 0.136. For the same compound, the relative viability (CAL-12T; first compound 0.2 µM) was 0.182, the relative viability (NCI-H1993; first compound 0.002 µM) was 1.09 and the relative viability (NCI-H1993; first compound 0.006325 µM) was 0.953. For the same compound, the relative viability (NCI-H1993; first compound 0.02 µM) was 0.617, the relative viability (NCI-H1993; first compound 0.06325 µM) was 0.903 and the relative viability (NCI-H1993; first compound 0.2 µM) was 0.39. The relative viability (SK-MES-1; first compound 0.002 µM) was 0.713, the relative viability (SK-MES-1; first compound 0.006325 µM) was 0.629 and the relative viability (SK-MES-1; first compound 0.02 µM) was 0.326. It also gave a relative viability (SK-MES-1; first compound 0.06325 µM) of 0.17 and a relative viability (SK-MES-1; first compound 0.2 µM) of 0.157.
